The IC50 is the midpoint of a concentration-inhibition curve. Higher therefore signals weaker potency. In general, Ki refers to the equilibrium dissociation constant of an inhibitor or competing ligand from its target. A low value points to a stronger hold on the target.

For one series, the system named is erythrocytes. The experiment in a line: Intracellular access of the drugs in erythrocytes (LC-MS). It counts as in vitro ADME, human. To be noted: 30 min incubation, milrinone 10 µM, amrinone 100 µM, levosimendan 1 µM. Here is the method:
Fresh (<24 h) EDTA blood from healthy donors (n = 18) was obtained and washed with Krebs-Ringer-Phosphate-Buffer containing glucose (KRPB/G, pH 7.4) and centrifuged (10 min, 1,000 g) three consecutive times. Plasma and buffy coat were removed. KRPB/G was added to the cell solution to bring it to the ratio 1:2.5. Hematocrit (Hct) was measured and adjusted with additional buffer to reach 0.44, in order to give the final Hct of 0.40 in the incubation solution. […] The reaction was stopped by placing the test tubes on ice and adding 4 ml of ice cold KRFB/G. The samples were subsequently centrifugated (5 min, 600 g), then washed with KRFB/G once more and centrifugation was repeated twice. 50 µl of the remaining red blood cell suspension was transferred to Eppendorf tubes. 50 µl 500 nM IS-Milrinone-d3 was added as an internal standard (TLC Pharmaceutical Standards Ltd.). 200 µl ZnSO4 was added to each test sample, to induce lysis of the cells, and mixed in a vortex mixer. 30 µl of the samples were used for measurement of protein concentration, the rest was mixed with 500 µl acetonitrile and centrifugated (2 min, 13400 g). Finally, 100 µl of the solution was collected for analysis using mass spectrometry (MS).
Liquid chromatography tandem mass spectrometry (LC-MS) was used to assess concentrations of the inhibitors for experiments performed to determine intracellular access of these drugs, as well as to quantify levels of cAMP/AMP and cGMP/GMP for the PDE3-and PDE5-inhibition plots. Internal standards were used, as described previously. There was a linearity from 0.2 nM to at least 2000 nM (r^2 > 0.998) for cAMP, AMP, and cGMP. For GMP, linearity was present from 2 nM to at least 2000 nM (r^2 > 0.998). Concerning PDE3-inhibitors, the linearity was found at 10 nM to at least 5,000 nM (r^2 > 0.99). Lower limit of quantification (LLOQ) was 0.2 for cAMP, cGMP, and AMP, 2 nM for GMP and 10 nM for PDE3-inhibitors (2 µl injection volume).
Intracellular concentrations of drugs were adjusted for protein concentrations in each sample. The total incubation concentrations were also adjusted for protein concentrations to evaluate the degree of access in percentage. Statistical analysis was performed using one-way ANOVA with Holm-Sidak multiple comparisons post hoc test at each temperature. ANOVA on ranks with Dunn post hoc test was used when the results were not normally distributed. The results are presented as means ± standard error of mean (SEM). p-values < 0.05 were considered significant results. Degrees of freedom (dF) is given as between group values. SigmaPlot 14.0 (Systat Software, San Jose, CA, United States) was used for all analysis, as well as creating the graphs.

The target in another series is T1, ABCC4 (Homo sapiens, UniProt O15439).
T1 sequence (O15439 1-1325): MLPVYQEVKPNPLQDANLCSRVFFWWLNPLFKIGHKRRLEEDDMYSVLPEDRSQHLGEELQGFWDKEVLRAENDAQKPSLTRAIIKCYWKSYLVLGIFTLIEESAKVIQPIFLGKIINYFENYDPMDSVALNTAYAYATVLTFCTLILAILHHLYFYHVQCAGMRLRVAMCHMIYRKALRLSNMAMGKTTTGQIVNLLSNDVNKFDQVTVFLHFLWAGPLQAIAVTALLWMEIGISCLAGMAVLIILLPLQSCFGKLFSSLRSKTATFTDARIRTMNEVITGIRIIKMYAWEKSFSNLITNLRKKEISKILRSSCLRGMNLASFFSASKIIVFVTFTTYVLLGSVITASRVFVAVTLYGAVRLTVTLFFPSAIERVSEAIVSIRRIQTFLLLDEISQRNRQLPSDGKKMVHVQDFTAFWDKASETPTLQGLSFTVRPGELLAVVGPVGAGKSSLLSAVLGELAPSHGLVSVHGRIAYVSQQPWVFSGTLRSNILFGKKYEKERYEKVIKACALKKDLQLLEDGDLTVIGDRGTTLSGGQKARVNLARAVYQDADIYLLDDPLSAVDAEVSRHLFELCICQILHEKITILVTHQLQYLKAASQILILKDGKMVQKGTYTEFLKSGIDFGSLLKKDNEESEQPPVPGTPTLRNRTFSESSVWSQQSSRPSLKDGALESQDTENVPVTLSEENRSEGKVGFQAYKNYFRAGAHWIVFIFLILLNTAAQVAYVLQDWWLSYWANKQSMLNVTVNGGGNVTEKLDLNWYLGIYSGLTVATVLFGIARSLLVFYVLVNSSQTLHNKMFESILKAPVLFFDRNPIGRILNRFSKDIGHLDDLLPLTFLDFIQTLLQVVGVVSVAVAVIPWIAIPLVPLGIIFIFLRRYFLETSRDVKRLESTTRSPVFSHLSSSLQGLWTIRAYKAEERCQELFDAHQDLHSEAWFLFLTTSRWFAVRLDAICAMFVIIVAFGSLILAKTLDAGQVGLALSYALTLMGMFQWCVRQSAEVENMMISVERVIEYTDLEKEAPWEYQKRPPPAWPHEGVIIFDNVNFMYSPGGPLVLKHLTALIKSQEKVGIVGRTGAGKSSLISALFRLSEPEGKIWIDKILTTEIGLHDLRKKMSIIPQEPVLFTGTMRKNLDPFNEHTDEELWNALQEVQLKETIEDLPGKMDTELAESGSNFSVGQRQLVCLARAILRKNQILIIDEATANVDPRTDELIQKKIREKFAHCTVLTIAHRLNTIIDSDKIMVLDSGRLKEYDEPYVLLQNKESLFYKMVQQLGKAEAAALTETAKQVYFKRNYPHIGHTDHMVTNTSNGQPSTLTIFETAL
Briefly: biochemical. To be noted: cAMP-efflux, inside-out vesicles; for IC50: 20 µM 3H-cAMP, 60 min; for Ki: ABCC4 Ki. Type of series: biochemical. The procedure: Freshly collected EDTA blood from healthy donors (n = 35) was prepared at 0°C–4°C, starting by separating the erythrocytes from plasma by centrifugation at 2,300 g for approximately 15 min. […] Lysis followed thereafter, with ten volumes of 5 mM Tris-HCl, 0.5 mM EGTA, 4 mM KCl (pH 8.1) and washed by repeated centrifugation at 20,000 g for 20 min and resuspension in the same buffer. Vesiculation was initiated by adding 39 volumes of a […] buffer ([…] Tris-HCl, pH 8.2) to one volume of cell suspension and completed by forcing the solution five times through a 27-gauge syringe needle to promote homogenization of the membranes. […] The resulting IOVs, which still contained ABC-transporters in the membrane, enabled us to control the intracellular environment, in this case the surrounding medium, and collect the cyclic nucleotides within. […] Radioactive labeled (^3H)-cAMP or (^3H)-cGMP (Perkin Elmer, Boston, MA, United States) were added to the incubation solutions in the concentration 20 and 2 μM, respectively, depending on the transporter examined, together with the appointed study drug in concentrations up to 1 mM. […] Next step was to collect the IOVs, which was done by filtration through a nitrocellulose membrane (Bio-Rad Laboratories, Feldkirchen, Germany), and then drying it. The resulting collection of radioactivity upon the filter, was later quantified by using a Packard TopCount NXT (Packard, Downers Grove, IL, United states) after adding scintillation fluid (MicroScint-O, PerkinElmer, Groningen, Netherlands).
IC50 and Ki values were calculated for each of the drugs, both for their ability to inhibit cAMP- and cGMP- efflux, as well as PDE3 and PDE5 activity. […] Inhibition curves were created accordingly, both with and without adjustment for normothermic control.

SMILES strings stand for the structures.

On to `Cc1[nH]c(=O)c(C#N)cc1-c1ccncc1` [Milrinone], for which the “Intracellular access, % of drug concentration per gram protein in the incubation solution” value in the series with erythrocytes (28°C) was 15.06 ± 0.544%; in the series with erythrocytes (34°C), 11.41 ± 1.675%. Moreover, the IC50 amounted to 37.4 ± 24.5 µM against ABCC4 (ABCC4 IC50, 28°C); 32.9 ± 14.6 µM against ABCC4 (ABCC4 IC50, 32°C); 67 ± 22.6 µM at ABCC4 (ABCC4 IC50, 34°C); 58.9 ± 13.1 µM on ABCC4 (ABCC4 IC50, 37°C). In addition, the Ki on ABCC4 (28°C) was determined as 22.7 ± 14.9 µM; on ABCC4 (32°C), 20 ± 8.86 µM; at ABCC4 (34°C), 40.6 ± 13.7 µM; on ABCC4 (37°C), 35.7 ± 7.94 µM.

Source of the values: publication PMC9326216, “Treatment of Cardiovascular Dysfunction with PDE3-Inhibitors in Moderate and Severe Hypothermia—Effects on Cellular Elimination of Cyclic Adenosine Monophosphate and Cyclic Guanosine Monophosphate” (Frontiers in Physiology, 2022).
